Source: ChEMBL document CHEMBL5649166, “RIP3 induces apoptosis independent of pronecrotic kinase activity” (Mol Cell, 2014)

Assays:
[1] = target: T1, Dual serine/threonine and tyrosine protein kinase (Homo sapiens) (UniProt Q6XUX3); assay: Inhibition of human RIPK5 using myelin basic protein as substrate at 1 uM in presence of 32P-ATP by Hotspot assay relative to control; values are per cent of control
T1 sequence (whole entry): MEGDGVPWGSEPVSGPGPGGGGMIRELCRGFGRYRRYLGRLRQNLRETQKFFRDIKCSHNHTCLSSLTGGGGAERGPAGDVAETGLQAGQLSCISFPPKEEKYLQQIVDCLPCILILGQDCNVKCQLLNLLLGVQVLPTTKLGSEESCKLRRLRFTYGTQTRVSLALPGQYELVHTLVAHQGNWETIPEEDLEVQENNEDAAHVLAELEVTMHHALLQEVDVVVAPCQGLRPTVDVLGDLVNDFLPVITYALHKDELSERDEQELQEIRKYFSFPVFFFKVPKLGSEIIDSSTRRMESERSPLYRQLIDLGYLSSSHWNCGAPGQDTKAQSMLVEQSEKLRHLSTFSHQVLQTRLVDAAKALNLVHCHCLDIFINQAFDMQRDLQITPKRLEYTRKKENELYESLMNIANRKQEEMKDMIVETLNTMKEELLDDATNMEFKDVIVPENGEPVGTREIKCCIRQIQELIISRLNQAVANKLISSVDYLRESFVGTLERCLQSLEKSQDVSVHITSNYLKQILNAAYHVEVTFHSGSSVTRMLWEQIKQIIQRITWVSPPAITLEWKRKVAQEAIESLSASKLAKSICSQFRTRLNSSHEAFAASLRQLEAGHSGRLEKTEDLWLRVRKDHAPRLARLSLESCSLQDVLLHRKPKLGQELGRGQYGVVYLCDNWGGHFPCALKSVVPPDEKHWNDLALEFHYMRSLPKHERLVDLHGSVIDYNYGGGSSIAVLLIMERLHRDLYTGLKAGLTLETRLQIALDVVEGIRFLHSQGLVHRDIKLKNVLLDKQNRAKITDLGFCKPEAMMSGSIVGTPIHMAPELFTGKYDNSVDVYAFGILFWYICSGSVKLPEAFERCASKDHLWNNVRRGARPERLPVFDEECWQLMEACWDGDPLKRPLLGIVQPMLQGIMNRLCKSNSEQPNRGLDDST

[2] = target: T2, Testis-specific serine/threonine-protein kinase 1 (Homo sapiens) (UniProt Q9BXA7); assay: Residual activity of human STK22D/TSSK1 using KKKVSRSGLYRSPSMPENLNRPR as substrate at 1 uM in presence of 32P-ATP by Hotspot assay relative to control
T2 sequence (whole entry): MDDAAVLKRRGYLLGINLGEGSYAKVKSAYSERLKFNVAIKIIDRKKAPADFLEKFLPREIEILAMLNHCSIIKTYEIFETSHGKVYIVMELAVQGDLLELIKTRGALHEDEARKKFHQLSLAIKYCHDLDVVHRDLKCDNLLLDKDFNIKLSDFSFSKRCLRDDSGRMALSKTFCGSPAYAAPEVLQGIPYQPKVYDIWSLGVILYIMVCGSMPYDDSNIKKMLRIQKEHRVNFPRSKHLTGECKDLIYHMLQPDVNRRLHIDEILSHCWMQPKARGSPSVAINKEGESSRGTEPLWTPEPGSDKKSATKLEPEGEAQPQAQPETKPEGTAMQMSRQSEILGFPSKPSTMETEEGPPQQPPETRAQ

[3] = target: Mitogen-activated protein kinase kinase kinase 9 (Homo sapiens) (UniProt P80192); assay: Inhibition of human MLK1/MAP3K9 using casein as substrate at 1 uM in presence of 32P-ATP by Hotspot assay relative to control; values are per cent of control
Mitogen-activated protein kinase kinase kinase 9 (Homo sapiens), sequence (P80192 whole entry, looked up): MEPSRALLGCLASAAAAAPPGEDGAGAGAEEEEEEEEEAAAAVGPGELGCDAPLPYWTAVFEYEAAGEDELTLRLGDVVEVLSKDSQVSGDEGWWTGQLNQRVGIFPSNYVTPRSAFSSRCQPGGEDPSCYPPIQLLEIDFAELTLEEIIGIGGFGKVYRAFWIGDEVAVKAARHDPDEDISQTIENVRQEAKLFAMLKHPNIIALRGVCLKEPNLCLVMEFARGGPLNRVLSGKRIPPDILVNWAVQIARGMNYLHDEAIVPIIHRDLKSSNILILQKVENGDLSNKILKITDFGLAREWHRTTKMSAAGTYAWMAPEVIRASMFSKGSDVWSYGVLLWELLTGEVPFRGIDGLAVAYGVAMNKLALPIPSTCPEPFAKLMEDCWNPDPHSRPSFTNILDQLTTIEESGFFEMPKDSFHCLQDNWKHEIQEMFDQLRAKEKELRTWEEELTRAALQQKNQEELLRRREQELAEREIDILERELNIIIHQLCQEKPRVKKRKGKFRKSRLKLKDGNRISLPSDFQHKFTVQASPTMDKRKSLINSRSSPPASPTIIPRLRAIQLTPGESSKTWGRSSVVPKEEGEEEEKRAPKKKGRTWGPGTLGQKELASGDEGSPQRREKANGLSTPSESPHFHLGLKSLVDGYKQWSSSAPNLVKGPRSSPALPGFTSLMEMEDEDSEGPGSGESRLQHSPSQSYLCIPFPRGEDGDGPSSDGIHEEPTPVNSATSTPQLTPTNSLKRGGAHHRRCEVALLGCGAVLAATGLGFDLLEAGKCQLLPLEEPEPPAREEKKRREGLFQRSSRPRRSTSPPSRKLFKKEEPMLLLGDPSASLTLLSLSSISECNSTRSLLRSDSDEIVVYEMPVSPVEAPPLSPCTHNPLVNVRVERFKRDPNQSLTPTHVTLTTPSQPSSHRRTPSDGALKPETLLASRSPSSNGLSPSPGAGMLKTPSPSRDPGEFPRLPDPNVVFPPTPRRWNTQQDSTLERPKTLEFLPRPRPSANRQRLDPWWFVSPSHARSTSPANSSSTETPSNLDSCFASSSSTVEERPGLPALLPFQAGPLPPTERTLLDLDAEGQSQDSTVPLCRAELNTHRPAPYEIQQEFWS

[4] = target: Hepatocyte growth factor receptor (Homo sapiens) (UniProt P08581); assay: Inhibition of human c-MET using poly[Glu:Tyr] (4:1) as substrate at 1 uM in presence of 32P-ATP by Hotspot assay relative to control; values are per cent of control
Hepatocyte growth factor receptor (Homo sapiens), sequence (P08581 whole entry): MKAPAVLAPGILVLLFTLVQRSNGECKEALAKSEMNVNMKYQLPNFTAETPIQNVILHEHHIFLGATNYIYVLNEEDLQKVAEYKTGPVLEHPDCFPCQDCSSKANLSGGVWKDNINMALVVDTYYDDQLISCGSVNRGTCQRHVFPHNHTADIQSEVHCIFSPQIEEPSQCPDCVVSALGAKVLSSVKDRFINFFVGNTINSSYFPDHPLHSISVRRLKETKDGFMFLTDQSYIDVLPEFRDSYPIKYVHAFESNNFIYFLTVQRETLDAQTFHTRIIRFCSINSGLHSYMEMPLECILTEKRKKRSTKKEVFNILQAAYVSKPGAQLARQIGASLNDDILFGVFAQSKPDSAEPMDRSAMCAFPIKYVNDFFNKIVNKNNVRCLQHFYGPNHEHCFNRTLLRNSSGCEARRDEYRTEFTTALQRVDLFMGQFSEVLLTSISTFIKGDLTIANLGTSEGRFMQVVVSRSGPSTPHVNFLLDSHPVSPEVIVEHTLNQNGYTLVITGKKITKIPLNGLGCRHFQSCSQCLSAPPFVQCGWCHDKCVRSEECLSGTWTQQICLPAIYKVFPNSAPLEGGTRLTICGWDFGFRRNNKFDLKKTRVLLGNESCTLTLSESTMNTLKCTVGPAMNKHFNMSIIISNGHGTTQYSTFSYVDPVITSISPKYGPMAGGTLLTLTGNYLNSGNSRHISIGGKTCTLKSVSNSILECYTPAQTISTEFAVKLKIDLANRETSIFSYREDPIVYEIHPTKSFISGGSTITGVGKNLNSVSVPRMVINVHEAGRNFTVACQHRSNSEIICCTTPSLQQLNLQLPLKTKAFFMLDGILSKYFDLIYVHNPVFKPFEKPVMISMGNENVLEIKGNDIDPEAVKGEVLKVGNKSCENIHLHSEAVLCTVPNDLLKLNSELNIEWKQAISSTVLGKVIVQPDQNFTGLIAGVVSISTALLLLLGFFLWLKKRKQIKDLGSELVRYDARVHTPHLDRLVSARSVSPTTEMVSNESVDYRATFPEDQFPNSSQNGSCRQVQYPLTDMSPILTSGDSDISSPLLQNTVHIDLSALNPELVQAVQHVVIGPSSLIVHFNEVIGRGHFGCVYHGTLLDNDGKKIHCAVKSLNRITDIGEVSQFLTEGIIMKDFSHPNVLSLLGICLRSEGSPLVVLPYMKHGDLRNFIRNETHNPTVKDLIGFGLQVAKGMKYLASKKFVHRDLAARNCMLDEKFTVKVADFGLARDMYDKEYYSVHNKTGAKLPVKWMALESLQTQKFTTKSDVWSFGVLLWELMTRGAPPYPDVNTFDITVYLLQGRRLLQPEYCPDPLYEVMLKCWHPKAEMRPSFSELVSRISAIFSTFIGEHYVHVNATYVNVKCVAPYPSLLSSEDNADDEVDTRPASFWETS

[5] = target: Serine/threonine-protein kinase 24 (Homo sapiens) (UniProt Q9Y6E0); assay: Inhibition of human MST3/STK24 using myelin basic protein as substrate at 1 uM in presence of 32P-ATP by Hotspot assay relative to control; values are per cent of control
Serine/threonine-protein kinase 24 (Homo sapiens), sequence (Q9Y6E0 whole entry, looked up): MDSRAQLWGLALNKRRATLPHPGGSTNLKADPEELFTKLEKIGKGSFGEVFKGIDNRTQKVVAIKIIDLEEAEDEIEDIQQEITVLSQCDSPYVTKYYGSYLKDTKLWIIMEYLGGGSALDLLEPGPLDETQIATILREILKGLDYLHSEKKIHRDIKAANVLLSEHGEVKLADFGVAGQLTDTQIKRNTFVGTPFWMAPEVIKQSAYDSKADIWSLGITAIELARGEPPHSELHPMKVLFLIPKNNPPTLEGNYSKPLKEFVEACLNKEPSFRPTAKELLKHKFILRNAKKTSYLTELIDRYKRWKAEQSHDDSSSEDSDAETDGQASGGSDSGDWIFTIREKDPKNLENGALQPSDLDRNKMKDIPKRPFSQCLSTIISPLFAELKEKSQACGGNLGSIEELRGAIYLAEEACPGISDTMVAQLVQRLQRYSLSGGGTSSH

[6] = target: Death-associated protein kinase 3 (Homo sapiens) (UniProt O43293); assay: Inhibition of human ZIPK/DAPK3 using KKLNRTLSFAEPG as substrate at 1 uM in presence of 32P-ATP by Hotspot assay relative to control; values are per cent of control
Death-associated protein kinase 3 (Homo sapiens), sequence (O43293 whole entry, looked up): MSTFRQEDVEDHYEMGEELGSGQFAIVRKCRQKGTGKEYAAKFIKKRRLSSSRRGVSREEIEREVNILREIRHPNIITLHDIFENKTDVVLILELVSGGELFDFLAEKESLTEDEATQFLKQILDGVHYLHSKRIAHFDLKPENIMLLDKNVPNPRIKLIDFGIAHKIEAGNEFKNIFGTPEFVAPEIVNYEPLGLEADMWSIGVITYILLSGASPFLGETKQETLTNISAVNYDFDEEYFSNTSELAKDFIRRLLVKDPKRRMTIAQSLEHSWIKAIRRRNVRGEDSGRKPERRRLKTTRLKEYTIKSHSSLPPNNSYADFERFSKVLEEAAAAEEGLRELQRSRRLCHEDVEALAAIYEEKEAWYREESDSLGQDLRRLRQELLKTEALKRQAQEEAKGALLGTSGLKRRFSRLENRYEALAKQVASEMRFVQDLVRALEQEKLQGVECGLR

[7] = target: T3, Dual specificity mitogen-activated protein kinase kinase 6 (Homo sapiens) (UniProt P52564); assay: Inhibition of human MKK6 using p38a (K53A) as substrate at 1 uM in presence of 32P-ATP by Hotspot assay relative to control; values are per cent of control
T3 sequence (whole entry): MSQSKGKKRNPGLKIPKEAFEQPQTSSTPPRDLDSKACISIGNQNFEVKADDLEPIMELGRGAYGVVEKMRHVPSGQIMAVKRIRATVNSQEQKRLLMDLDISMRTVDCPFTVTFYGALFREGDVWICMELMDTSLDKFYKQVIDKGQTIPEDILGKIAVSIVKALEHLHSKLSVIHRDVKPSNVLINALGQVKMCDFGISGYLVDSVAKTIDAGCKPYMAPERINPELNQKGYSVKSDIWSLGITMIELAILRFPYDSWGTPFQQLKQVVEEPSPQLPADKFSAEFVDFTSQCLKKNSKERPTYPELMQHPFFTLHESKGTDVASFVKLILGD

[8] = target: T4, MAP kinase-activated protein kinase 5 (Homo sapiens) (UniProt Q8IW41); assay: Inhibition of human MAPKAPK5/PRAK using KKLNRTLSVA as substrate at 1 uM in presence of 32P-ATP by Hotspot assay relative to control; values are per cent of control
T4 sequence (whole entry): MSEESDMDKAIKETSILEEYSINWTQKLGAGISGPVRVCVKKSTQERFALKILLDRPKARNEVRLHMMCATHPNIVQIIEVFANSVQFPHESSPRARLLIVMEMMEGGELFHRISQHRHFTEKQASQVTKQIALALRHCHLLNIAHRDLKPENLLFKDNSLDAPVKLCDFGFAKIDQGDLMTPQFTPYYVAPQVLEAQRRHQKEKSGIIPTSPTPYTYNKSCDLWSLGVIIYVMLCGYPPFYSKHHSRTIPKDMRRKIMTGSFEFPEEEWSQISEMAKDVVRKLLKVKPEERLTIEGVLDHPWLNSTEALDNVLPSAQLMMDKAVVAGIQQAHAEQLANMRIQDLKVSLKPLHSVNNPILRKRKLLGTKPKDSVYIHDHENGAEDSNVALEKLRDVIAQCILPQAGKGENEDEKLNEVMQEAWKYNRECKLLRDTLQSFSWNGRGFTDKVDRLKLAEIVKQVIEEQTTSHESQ

CC(C)S(=O)(=O)c1ccc2nccc(Nc3ccc4scnc4c3)c2c1
residual activity [1]: 106% | residual activity [2]: 98.6% | residual activity [3]: 97% | residual activity [4]: 86.2% | residual activity [5]: 100% | residual activity [6]: 102% | residual activity [7]: 91.3% | residual activity [8]: 102%

Cc1cc(-c2cnc(N)c3c(-c4ccc5scnc5c4)csc23)n(C)n1
residual activity [1]: 101% | residual activity [2]: 101% | residual activity [3]: 102% | residual activity [4]: 76.8% | residual activity [5]: 93.9% | residual activity [6]: 91.3% | residual activity [7]: 92.9% | residual activity [8]: 90.5%

CNC(=O)c1ccc2c(c1)ncn2-c1ccc(CC(=O)OC(C)(C)C)cc1
residual activity [1]: 95.6% | residual activity [2]: 89.2% | residual activity [3]: 90.7% | residual activity [4]: 92.4% | residual activity [5]: 94% | residual activity [6]: 96.8% | residual activity [7]: 98.5% | residual activity [8]: 103%
